Assay results: PubChem BioAssay AID2060903 (Molecular Pharmacology Branch, DTP, NCI, 2025)
pIC50: −log10 of the molar value.

System: 377384-186-R-J1-PDC complex spheroid viability
Test: Anticancer human tumor 377384-186-R-J1-PDC patient-derived pancreatic carcinoma cell line growth inhibition [RAS]
Settings: for pIC50: curve of first compound; for viability, T/C: stronger effect = lower value
How it was run: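 Agents were tested in combination matrices in half-log decrements from a top concentration at or near clinical Cmax (10 microM if undetermined). Targets were multi-cell spheroids of tumour lines plus HUVEC and MSC stromal cells.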
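Also: spheroids exposed to compounds for seven days before readout.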

pIC50 (second compound 0.0316 µM): > 8.50
pIC50 (second compound 0.1 µM): > 8.50
pIC50 (second compound 0.316 µM): > 8.50
pIC50 (second compound 1 µM): > 8.50
pIC50 (second compound 3.16 µM): > 8.50
pIC50 (second compound 10 µM): > 8.50
SMILES: C=CC(=O)Nc1cc(Nc2nccc(-c3cn(C)c4ccccc34)n2)c(OC)cc1N(C)CCN(C)C + C#Cc1c(F)ccc2cc(O)cc(-c3ncc4c(N5CC6CCC(C5)N6)nc(OCC56CCCN5CC(F)C6)nc4c3F)c12
viability, T/C (second compound 0.0316 µM, first compound 0.00316 µM): 23.5%
viability, T/C (second compound 0.0316 µM, first compound 0.01 µM): 20.6%
viability, T/C (second compound 0.0316 µM, first compound 0.0316 µM): 15.2%
viability, T/C (second compound 0.0316 µM, first compound 0.1 µM): 11.2%
viability, T/C (second compound 0.0316 µM, first compound 0.316 µM): 3.98%
viability, T/C (second compound 0.0316 µM, first compound 1 µM): 2.32%
viability, T/C (second compound 0.1 µM, first compound 0.00316 µM): 11.5%
viability, T/C (second compound 0.1 µM, first compound 0.01 µM): 8.96%
viability, T/C (second compound 0.1 µM, first compound 0.0316 µM): 5.18%
viability, T/C (second compound 0.1 µM, first compound 0.1 µM): 3.75%
viability, T/C (second compound 0.1 µM, first compound 0.316 µM): 2.22%
viability, T/C (second compound 0.1 µM, first compound 1 µM): 2.24%
viability, T/C (second compound 0.316 µM, first compound 0.00316 µM): 8.47%
viability, T/C (second compound 0.316 µM, first compound 0.01 µM): 5.04%
viability, T/C (second compound 0.316 µM, first compound 0.0316 µM): 3.96%
viability, T/C (second compound 0.316 µM, first compound 0.1 µM): 2.43%
viability, T/C (second compound 0.316 µM, first compound 0.316 µM): 1.28%
viability, T/C (second compound 0.316 µM, first compound 1 µM): 1.33%
viability, T/C (second compound 1 µM, first compound 0.00316 µM): 3.67%
viability, T/C (second compound 1 µM, first compound 0.01 µM): 2.76%
viability, T/C (second compound 1 µM, first compound 0.0316 µM): 2.37%
viability, T/C (second compound 1 µM, first compound 0.1 µM): 1.47%
viability, T/C (second compound 1 µM, first compound 0.316 µM): 1.51%
viability, T/C (second compound 1 µM, first compound 1 µM): 1.43%
viability, T/C (second compound 3.16 µM, first compound 0.00316 µM): 1.79%
viability, T/C (second compound 3.16 µM, first compound 0.01 µM): 1.63%
viability, T/C (second compound 3.16 µM, first compound 0.0316 µM): 1.82%
viability, T/C (second compound 3.16 µM, first compound 0.1 µM): 1.41%
viability, T/C (second compound 3.16 µM, first compound 0.316 µM): 1.37%
viability, T/C (second compound 3.16 µM, first compound 1 µM): 1.25%
viability, T/C (second compound 10 µM, first compound 0.00316 µM): 1.63%
viability, T/C (second compound 10 µM, first compound 0.01 µM): 1.14%
viability, T/C (second compound 10 µM, first compound 0.0316 µM): 1.21%
viability, T/C (second compound 10 µM, first compound 0.1 µM): 0.66%
viability, T/C (second compound 10 µM, first compound 0.316 µM): 1.89%
viability, T/C (second compound 10 µM, first compound 1 µM): 0.82%
